Laboratory results as given in EP0354694A1, “Therapeutic [1]benzothiopyrano[4,3-c]pyrazoles” (The Boots Company PLC, priority 1988, dated 1990).

system: BALB/c mice; assay: cutaneous hypersensitivity test (CH test), oxazolone-induced ear swelling; format: in vivo; conditions: Mus musculus, ip, 192 h; female BALB/c mice, intraperitoneal, daily from sensitisation for 8 days; lowest dose used with 20% or greater significant (p <0.05) reduction in ear swelling in two out of three CH tests; read-out: Minimum Effective Dose
Experimental: This test was carried out in the following way.
Female BALB/c mice, weight range 16-24 g, were used in groups of eight. The abdomen of each mouse was shaved and 20 µl of a solution of a sensitising agent, 5% w/v 4-ethoxymethylene-2-phenyl-2-oxazolin-5-one (oxazolone) in acetone:ethanol (1:1 by volume), was applied to the shaved area. Immediately after sensitisation, the test compound in one of the dosages listed below was injected intraperitoneally as a suspension in 1.5% v/v sorbitan esters, under the trade name Tween 80, in sterile water (100 µl). 100 µl of the same suspension was injected likewise every 24 hours for a further 7 days. The dosages used were selected from the following values: 50, 30, 10, 3, 1, 0.3, 0.1, 0.03 or 0.01 mg/kg.
Two groups of eight BALB/c mice were used as a control simultaneously with each test in a similar manner to that described above except that no test compound was included in the daily injections.
On the seventh day after sensitisation, 10 µl of a solution of 1% w/v oxazolone in acetone: olive oil (either 1:1 or 3:1 by volume) was applied to one ear (the challenged ear) of each of the test mice and the control mice. After 24 hours the thickness of the challenged ear and the thickness of the non-challenged ear of the same animal were measured with an engineer's screw gauge micrometer. The difference in thickness between the challenged ear and the non-challenged ear in each animal is a measure of the response of that animal to oxazolone. A comparison between the response of mice treated with the test compound and mice treated with the control indicates the effectiveness of the test compound as an immunomodulatory agent. The compounds were considered to be active at a particular dose if a 20% or greater reduction in ear swelling, which was statistically significant (p <0.05) according to Dunnett's test, between treated and control groups was obtained in two out of three CH tests, (or, where more than three tests have been carried out, a majority of the tests) at that dose (see for example Int. Arch. Allergy, 38, p246-259 (1970)).
Each of the compounds of formula I illustrated in Table A below was active at 50 mg/kg in two out of three tests at 50 mg/kg unless indicated otherwise (see Notes following the Table). The minimum effective dose (ie the lowest dose of those used at which the compound is active as defined above) for each compound is given in Table A. The Example (Ex) number or numbers listed adjacent to each compound indicates the process or processes illustrating the preparation of that compound in the Examples.

| Compound | minimal effective dose [mg/kg] |
| --- | --- |
| Cc1sc2ccccc2c2nn(-c3ccc(C(F)(F)F)cc3)c(=O)c1-2 [Example 38, 4-methyl-2-(4-trifluoromethyl-phenyl)[1]benzothiopyrano[4,3-c]-pyrazol-3(2H)-one] | 0.3 |
| CC12CSc3ccccc3C1=NN(c1ccc(Br)c(Cl)c1)C2=O (stereo not drawn) [Example 17, 2-(4-bromo-3-chlorophenyl)-3a-methyl-3a,4-dihydro[1]benzothiopyrano[4,3-c]-pyrazol-3(2H)-one] | 0.3 |
| CC1Sc2ccccc2-c2[nH]n(-c3ccc(C(F)(F)F)cc3)c(=O)c21 (stereo not drawn) [Example 29/ 34/ 44, 4-methyl-2-(4-trifluoromethylphenyl)-1,4-dihydro[1]benzothiopyrano[4,3-c]-pyrazol-3(2H)-one] | 3 |
| CC12CSc3ccc(Cl)cc3C1=NN(c1ccc(Cl)c(Cl)c1)C2=O (stereo not drawn) [Example 15, 8-chloro-2-(3,4-dichlorophenyl)-3a-methyl-3a,4-dihydro[1]benzothio-pyrano[4,3-c]pyrazol-3(2H)-one] | 50 |
| COc1ccc(-n2nc3c4ccccc4sc(C)c-3c2=O)cc1 [Example 40, 2-(4-methoxyphenyl)-4-methyl[1]benzo-thiopyrano[4,3-c]pyrazol-3(2H)-one] | 50 |
| Cc1sc2ccccc2c2nn(-c3ccc(Br)cc3)c(=O)c1-2 [Example 39, 2-(4-bromophenyl)-4-methyl[1]benzo-thiopyrano[4,3-c]pyrazol-3(2H)-one] | 50 |
| CC12CSc3ccc(F)cc3C1=NN(c1ccc(Cl)cc1)C2=O (stereo not drawn) [Example 22, 2-(4-chlorophenyl)-8-fluoro-3a-methyl-3a,4-dihydro[1]benzothiopyrano[4,3-c]-pyrazol-3(2H)-one] | 50 |
| CC1Sc2ccccc2-c2[nH]n(-c3ccc(F)cc3)c(=O)c21 (stereo not drawn) [Example 27, 2-(4-fluorophenyl)-4-methyl-1,4-dihydro[1]benzothiopyrano[4,3-c]-pyrazol-3(2H)-one] | 50 |
| CC12CSc3ccccc3C1=NN(c1ccc(Cl)cc1)C2=O (stereo not drawn) [Example 11/ 23, 2-(4-chlorophenyl)-3a-methyl-3a,4-dihydro[1]benzothiopyrano[4,3-c]-pyrazol-3(2H)-one] | 3 |
| Cc1sc2ccccc2c2nn(-c3ccc(Cl)cc3)c(=O)c1-2 [Example 35, 2-(4-chlorophenyl)-4-methyl[1]-benzothiopyrano[4,3-c]pyrazol-3(2H)-one] | 10 |
| CC12CSc3ccccc3C1=NN(c1ccc(Cl)c(Cl)c1)C2=O (stereo not drawn) [Example 13/ 24, 2-(3,4-dichlorophenyl)-3a-methyl-3a,4-dihydro[1]benzothiopyrano-[4,3-c]pyrazol-3(2H)-one] | 0.3 |
| Cc1sc2ccccc2c2nn(-c3ccc(F)cc3)c(=O)c1-2 [Example 36, 2-(4-fluorophenyl)-4-methyl[1]benzo-thiopyrano[4,3-c]pyrazol-3(2H)-one] | 10 |
| Cc1sc2ccccc2c2nn(-c3ccc(Cl)c(Cl)c3)c(=O)c1-2 [Example 43, 2-(3,4-dichlorophenyl)-4-methyl[1]-benzothiopyrano[4,3-c]pyrazol-3(2H)-one] | 3 |
| Cc1ccc2sc(C)c3c(=O)n(-c4ccc(Cl)cc4)nc-3c2c1 [Example 41, 2-(4-chlorophenyl)-4,8-dimethyl[1]-benzothiopyrano[4,3-c]pyrazol-3(2H)-one] | 3 |
| CC12CSc3ccccc3C1=NN(c1ccc(F)cc1)C2=O (stereo not drawn) [Example 12, 2-(4-fluorophenyl)-3a-methyl-3a,4-dihydro[1]benzothiopyrano[4,3-c]-pyrazol-3(2H)-one] | 50 |
| CC12CSc3ccccc3C1=NN(c1ccc(F)c(Cl)c1)C2=O (stereo not drawn) [Example 18, 2-(3-chloro-4-fluorophenyl)-3a-methyl-3a,4-dihydro[1]benzothiopyrano[4,3-c]-pyrazol-3(2H)-one] | 3 |
| CC12CSc3ccccc3C1=NN(c1cccc(Cl)c1)C2=O (stereo not drawn) [Example 14, 2-(3-chlorophenyl)-3a-methyl-3a,4-dihydro[1]benzothiopyrano[4,3-c]-pyrazol-3(2H)-one] | 3 |
| CC12CSc3ccccc3C1=NN(c1ccc(Br)cc1)C2=O (stereo not drawn) [Example 20, 2-(4-bromophenyl)-3a-methyl-3a,4-dihydro[1]benzothiopyrano[4,3-c]-pyrazol-3(2H)-one] | 1 |
| CC1Sc2ccccc2-c2[nH]n(-c3ccc(Cl)c(Cl)c3)c(=O)c21 (stereo not drawn) [Example 26, 2-(3,4-dichlorophenyl)-4-methyl-1,4-dihydro[1]benzothiopyrano[4,3-c]-pyrazol-3(2H)-one] | 50 |
| CC12CSc3ccccc3C1=NN(c1ccc(C(F)(F)F)cc1)C2=O (stereo not drawn) [Example 16, 3a-methyl-2-(4-trifluoromethylphenyl)-3a,4-dihydro[1]benzothiopyrano-[4,3-c]pyrazol-3(2H)-one] | 0.3 |
| CSc1ccc(N2N=C3c4ccccc4SCC3(C)C2=O)cc1 (stereo not drawn) [Example 21, 3a-methyl-2-(4-methylthiophenyl)-3a,4-dihydro[1]benzothiopyrano[4,3-c]-pyrazol-3(2H)-one] | 50 |
| CC1Sc2ccccc2-c2[nH]n(-c3ccc(Cl)cc3)c(=O)c21 (stereo not drawn) [Example 25, 2-(4-chlorophenyl)-4-methyl-1,4-dihydro[1]benzothiopyrano[4,3-c]-pyrazol-3(2H)-one] | 30 |
| CC1Sc2ccccc2-c2[nH]n(-c3ccc(Br)cc3)c(=O)c21 (stereo not drawn) [Example 30, 2-(4-bromophenyl)-4-methyl-1,4-dihydro[1]benzothiopyrano[4,3-c]-pyrazol-3(2H)-one] | 3 |
| Cc1ccc(N2N=C3c4ccccc4SCC3(C)C2=O)cc1Cl (stereo not drawn) [Example 19, 2-(3-chloro-4-methylphenyl)-3a-methyl-3a,4-dihydro[1]benzothiopyrano[4,3-c]-pyrazol-3(2H)-one] | 3 |
| Cc1sc2ccccc2c2nn(-c3cccc(Cl)c3)c(=O)c1-2 [Example 42, 2-(3-chlorophenyl)-4-methyl[1]benzo-thiopyrano[4,3-c]pyrazol-3(2H)-one] | 50 |
| CCc1sc2ccccc2c2nn(-c3ccc(Cl)cc3)c(=O)c1-2 [Example 37, 2-(4-chlorophenyl)-4-ethyl[1]benzo-thiopyrano[4,3-c]pyrazol-3(2H)-one] | 50 |
| CCC1Sc2ccccc2-c2[nH]n(-c3ccc(Cl)cc3)c(=O)c21 (stereo not drawn) [Example 28, 2-(4-chlorophenyl)-4-ethyl-1,4-dihydro[1]benzothiopyrano[4,3-c]-pyrazol-3(2H)-one] | 50 |
